Legend:
[1] = metformin on its own, in the diabetic; cited from earlier work
[2] = 26 week randomized, double-blind, placebo-controlled clinical trial: body weight; type: in vivo, human; details: for Absolute Body Weight Change from Baseline at Week 26, LS Mean / Body weight % Change from Baseline at Week 26, LS Mean: MMRM; for Body weight % Change from Baseline at Week 26, LS Mean: overweight or obese non-diabetic adults; for Absolute Body Weight Change from Baseline at Week 26, Diff. of LS Means Minus Placebo / Body weight % Change from Baseline at Week 26, Diff. of LS Means Minus Placebo: placebo-subtracted; for estimated contribution to the weight loss observed at Week 26: share of the weight loss in the co-therapy group
Method: (§1) The safety and efficacy of combination treatment with 300 mg canagliflozin and 15 mg phentermine was investigated in a 26 week, randomized, double-blind, placebo-controlled, parallel group, multi-center study. (Complete study protocol filed and available as STUDY 28431754-OBE2002 on www.clinicaltrials.gov).
(§2) The study began with a 4-week single blind placebo run-in period. […] All subjects were provided with diet and exercise counseling for weight loss (standardized non-pharmacological therapy) and were instructed to follow the diet and exercise program throughout the study.
(§3) The modified intent-to-treat (mITT) analysis set included all randomized subjects who had received at least one dose of study drug. The primary efficacy endpoint was percent change from baseline in body weight at Week 26. The secondary efficacy endpoints included (1) proportion of subjects with weight loss ≥5% at Week 26, (2) absolute change from baseline in SBP ([…]) at Week 26, and (3) absolute change from baseline in body weight at Week 26. The inclusion of canagliflozin 300 mg and phentermine 15 mg as separate treatment groups allowed for a descriptive estimate of relative contribution of the individual components to the observed weight loss in the co-therapy canagliflozin 300 mg/phentermine 15 mg group and provided efficacy and safety data on canagliflozin 300 mg in the non-diabetic, overweight/obese population. Safety analyses included treatment-emergent adverse events (referred to as adverse events in this document), laboratory tests (including chemistry and hematology), and vital signs (blood pressure and pulse rate).
The change from baseline in absolute body weight at Week 26 was analyzed with an MMRM similar to the primary efficacy endpoint.

[3] = 26 week placebo-controlled clinical trial: pulse rate (vital signs); type: in vivo, human
Method: as §1, §2, §3

[4] = 26 week placebo-controlled clinical trial: systolic and diastolic blood pressure; type: in vivo, human; details: Week 26; for Systolic Blood Pressure Change From Baseline, LS Mean: MMRM; for Diastolic Blood Pressure, Mean change / Diastolic Blood Pressure, Median change / Systolic Blood Pressure, Mean change / Systolic Blood Pressure, Median change: change from baseline, observed; for Systolic Blood Pressure Change From Baseline, Diff. of LS Means Minus Placebo: placebo-subtracted
Method: as §1, §2, §3
The reduction in diastolic blood pressure of −1.6 mm Hg (baseline 80 mm Hg) was not statistically significant.

C. elegans = details: BOHB treatment of the worm (C. elegans); Edwards et al. 2014; cited from earlier work
[5] = Week 26, change from baseline, observed

SMILES: CN(C)C(=N)N=C(N)N [metformin]
- average improvement in the HbA1c value [1]: 1.0-1.5%

SMILES: CC(C)(N)Cc1ccccc1 [Phen 15 mg, 2-methyl-1-phenylpropan-2-amine]
- Absolute Body Weight Change from Baseline at Week 26, LS Mean [2]: -4.1 kg
- Body weight % Change from Baseline at Week 26, LS Mean [2]: −4.1%
- Absolute Body Weight Change from Baseline at Week 26, Diff. of LS Means Minus Placebo [2]: -3.5 kg
- Body weight % Change from Baseline at Week 26, Diff. of LS Means Minus Placebo [2]: −3.5%
- estimated contribution to the weight loss observed at Week 26 [2]: 50%
- pulse, LS Mean change from baseline (SE) ([3]; Week 26): 4.1 (1.0) bpm
- Pulse Rate, Mean change [3, 5]: 5.02 BEATS/MIN
- Pulse Rate, Median change [3, 5]: 4.67 BEATS/MIN
- Systolic Blood Pressure Change From Baseline, LS Mean [4]: −1.4 mmHg
- Diastolic Blood Pressure, Mean change [4]: 0.55 mmHg
- Diastolic Blood Pressure, Median change [4]: 0.67 mmHg
- Systolic Blood Pressure, Mean change [4]: −1.13 mmHg
- Systolic Blood Pressure, Median change [4]: −0.33 mmHg
- Systolic Blood Pressure Change From Baseline, Diff. of LS Means Minus Placebo [4]: 1.3 mmHg

SMILES: Cc1ccc([C@@H]2O[C@H](CO)[C@@H](O)[C@H](O)[C@H]2O)cc1Cc1ccc(-c2ccc(F)cc2)s1 [Cana 300 mg, (1S)-1,5-anhydro-1-[3-[[5-(4-fluorophenyl)-2-thienyl]methyl]-4-methylphenyl]-D-glucitol]
- Absolute Body Weight Change from Baseline at Week 26, LS Mean [2]: -1.9 kg
- Body weight % Change from Baseline at Week 26, LS Mean [2]: −1.9%
- Absolute Body Weight Change from Baseline at Week 26, Diff. of LS Means Minus Placebo [2]: -1.3 kg
- Body weight % Change from Baseline at Week 26, Diff. of LS Means Minus Placebo [2]: −1.3%
- estimated contribution to the weight loss observed at Week 26 [2]: 18%
- Pulse Rate, Mean change ([3]; human, in vivo): 1.64 BEATS/MIN
- Pulse Rate, Median change ([3]; human, in vivo): 0.83 BEATS/MIN
- pulse, LS Mean change from baseline (SE) ([3]; human, in vivo): 0.7 (1.0) bpm
- Systolic Blood Pressure Change From Baseline, LS Mean [4]: −3.1 mmHg
- Diastolic Blood Pressure, Mean change [4]: −1.32 mmHg
- Diastolic Blood Pressure, Median change [4]: −1.17 mmHg
- Systolic Blood Pressure, Mean change [4]: −3.31 mmHg
- Systolic Blood Pressure, Median change [4]: −1.67 mmHg
- Systolic Blood Pressure Change From Baseline, Diff. of LS Means Minus Placebo [4]: −0.4 mmHg

SMILES: CC(O)CC(=O)O (stereo not drawn) [BOHB, beta-hydroxybutyrate]
- increase in lifespan (C. elegans): ~20%

Source: patent publication US11207337B2, “Co-therapy comprising canagliflozin and phentermine for the treatment of obesity and obesity related disorders” (Janssen Pharmaceutica NV, priority 2015, dated 2021)
